Measured values published in patent US7223862B2, “Pyridone compounds useful for producing pyridine compounds” (Sumitomo Chemical Company, Limited, priority 2001, dated 2007).

Legend:
[1] = test system: velvetleaf; experiment: Reference test example 1: foliar treatment, herbicidal activity; assay type: in vivo; settings: foliage spray of emulsifiable concentrate, 125 g/ha, examined 12 days after spraying, greenhouse
Protocol: (§1) Cylindrical plastic pots, each of which has a diameter of 10 cm and a depth of 10 cm, were filled with soil, and then seeded with ivyleaf morning glory and velvetleaf. The test plants were grown in a greenhouse for 10 days. Then, each of the compounds 1, 2, 3, 6, 8, 12, 15, 16, 19, 21, 40, 59 and 76 was formulated into an emulsifiable concentrate according to Reference formulation example 2, and diluted with water containing a spreading agent. The dilution was uniformly sprayed over the foliage of the test plants with a sprayer at a rate of 1000 liters per hectare. After spraying, the test plants were grown in the greenhouse for 12 days, and the herbicidal activity was examined.

[2] = test system: ivyleaf morning glory; experiment: as above; assay type: in vivo; settings: foliage spray of emulsifiable concentrate, 125 g/ha, examined 12 days after spraying, greenhouse
Protocol: as §1

[3] = test system: velvetleaf; experiment: Reference test example 2: soil surface treatment, herbicidal activity; assay type: in vivo; settings: soil surface spray of emulsifiable concentrate, 500 g/ha, examined 19 days after spraying, greenhouse
Description: as §1, with “velvetleaf. Each” for “velvetleaf. The test plants were grown in a greenhouse for 10 days. Then, each”, “with water.” for “with water containing a spreading agent.”, “the soil surface” for “the foliage of the test plants”, “for 19” for “for 12”

[4] = test system: ivyleaf morning glory; experiment: as above; assay type: in vivo; settings: soil surface spray of emulsifiable concentrate, 500 g/ha, examined 19 days after spraying, greenhouse
Description: as §1, with “velvetleaf. Each” for “velvetleaf. The test plants were grown in a greenhouse for 10 days. Then, each”, “with water.” for “with water containing a spreading agent.”, “the soil surface” for “the foliage of the test plants”, “for 19” for “for 12”

| melting point [°C] | Structure (SMILES) | herbicidal activity (control of growth) [1] | herbicidal activity (control of growth) [2] | herbicidal activity (control of growth) [3] | herbicidal activity (control of growth) [4] |
| --- | --- | --- | --- | --- | --- |
|  | COC(=O)COc1ncccc1Oc1cc(-n2c(=O)cc(C(F)(F)F)n(C)c2=O)c(F)cc1Br [Compound 21] | perfectly controlled the growth | perfectly controlled the growth | perfectly controlled the growth | perfectly controlled the growth |
|  | COC(=O)COc1ncccc1Oc1cc(-n2c(=O)cc(C(F)(F)F)n(C)c2=O)c(F)cc1Cl [Compound 2, 3-[2-chloro-4-fluoro-5-(3-methyl-2,6-dioxo-4-trifluoromethyl-1,2,3,6-tetrahydropyrimidin-1-yl)phenoxy]-2-(methoxycarbonylmethoxy)pyridine] | perfectly controlled the growth | perfectly controlled the growth | perfectly controlled the growth | perfectly controlled the growth |
|  | Cn1c(C(F)(F)F)cc(=O)n(-c2cc(Oc3cccnc3OCC(=O)O)c(Cl)cc2F)c1=O [Compound 1] | perfectly controlled the growth | perfectly controlled the growth | perfectly controlled the growth | perfectly controlled the growth |
|  | COC(=O)COc1ncccc1Oc1cc(-n2c(=O)cc(C(F)(F)F)n(C)c2=O)c(F)cc1C#N [Compound 40] | perfectly controlled the growth | perfectly controlled the growth | perfectly controlled the growth | perfectly controlled the growth |
|  | CCOC(=O)COc1ncccc1Oc1cc(-n2c(=O)cc(C(F)(F)F)n(C)c2=O)c(F)cc1Cl [Compound 3, 3-[2-chloro-4-fluoro-5-(3-methyl-2,6-dioxo-4-trifluoromethyl-1,2,3,6-tetrahydropyrimidin-1-yl)phenoxy]-2-(ethoxycarbonylmethoxy)pyridine] | perfectly controlled the growth | perfectly controlled the growth | perfectly controlled the growth | perfectly controlled the growth |
| 180.8 | Cn1c(C(F)(F)F)cc(=O)n(-c2cc(Oc3ccc[nH]c3=O)c(Cl)cc2F)c1=O [Compound 76, 3-[2-chloro-4-fluoro-5-(3-methyl-2,6-dioxo-4-trifluoromethyl-1,2,3,6-tetrahydropyrimidin-1-yl)phenoxy]-1H-pyridin-2-one] | perfectly controlled the growth | perfectly controlled the growth | perfectly controlled the growth | perfectly controlled the growth |
|  | COC(=O)COc1ncccc1Oc1cc(-n2c(=O)cc(C(F)(F)F)n(C)c2=O)c(F)cc1[N+](=O)[O-] [Compound 59] | perfectly controlled the growth | perfectly controlled the growth | perfectly controlled the growth | perfectly controlled the growth |
